Results taken from article PMC12369479 (Journal of Experimental Botany, 2025).

Tests used:
[1] = target: PpADK2 (Physcomitrium patens, UniProt A9RF27); experiment: ADK activity, coupled reaction with PK and LDH; conditions: 100 µM substrate, 10 mM ATP, pH 7.5, 30 °C
Procedure: (§1) Substrate analogs were purchased from Sigma-Aldrich (www.sigmaaldrich.com). The ADK activity was measured spectrophotometrically on an Agilent 8453 UV-Vis spectrophotometer (www.agilent.com) at 30 °C using a coupled reaction with pyruvate kinase (PK) and lactate dehydrogenase (LDH) (www.sigmaaldrich.com) ([Blondin et al., 1994]). In this assay, PK converts ADP produced by ADK and phosphoenolpyruvate (PEP) to pyruvate. Subsequently, LDH then converts pyruvate to lactate using the coenzyme NADH, with the conversion monitored at 340 nm. The reaction was conducted in 50 mM Tris–HCl buffer at pH 7.5, containing 50 mM KCl, 6 mM MgCl2, 300 µM PEP, 200 µM NADH, 10 mM ATP, 2 U of PK, and 2.5 U of LDH, using various nucleoside substrates. Kinetic constants were determined using GraphPad Prism 8.0 software (www.graphpad.com). Each measurement was performed six times using repetitive purified enzymes. The activities of all five ADKs were also measured by HPLC ([Moffatt et al., 1991]). The reaction mixture comprised 50 mM Tris–HCl pH 7.5, 5 mM MgCl2, 0.5 mM DTT, 30 mM NaF, 5 mM ATP, 40 µM substrate, and 2–150 ng of purified ADK, depending on the isoform. The reaction was incubated at 30 °C for up to 1 h. […] Similarly, the conversion of cytokinin ribosides to monophosphates was followed on a LiChrosphere 60 RP-Select B (5 µm) LiChroCART column 125-4 column equilibrated with 10 mM triethylamine at pH 5.4 plus 10% methanol, and stepwise eluted with 100% methanol.

[2] = target: ZmADK1 (Zea mays, UniProt K7UH13); experiment: ADK activity, coupled reaction with PK and LDH; conditions: 100 µM substrate, 10 mM ATP, pH 7.5, 30 °C
Sequence of ZmADK1 (K7UH13 entry or part of it): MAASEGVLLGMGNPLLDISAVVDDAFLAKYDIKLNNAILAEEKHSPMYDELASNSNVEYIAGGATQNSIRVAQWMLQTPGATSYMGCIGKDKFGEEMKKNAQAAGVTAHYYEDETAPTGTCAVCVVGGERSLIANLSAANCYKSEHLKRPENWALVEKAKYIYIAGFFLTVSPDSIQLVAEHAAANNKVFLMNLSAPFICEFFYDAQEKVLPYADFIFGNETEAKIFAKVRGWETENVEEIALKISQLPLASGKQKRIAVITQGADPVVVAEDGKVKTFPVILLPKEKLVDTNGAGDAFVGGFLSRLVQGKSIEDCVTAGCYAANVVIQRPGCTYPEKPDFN
Procedure: as §1

[3] = target: ZmADK3 (Zea mays, UniProt A0A1D6E5Z5); experiment: ADK activity, coupled reaction with PK and LDH; type: biochemical
Sequence of ZmADK3 (A0A1D6E5Z5 entry or part of it): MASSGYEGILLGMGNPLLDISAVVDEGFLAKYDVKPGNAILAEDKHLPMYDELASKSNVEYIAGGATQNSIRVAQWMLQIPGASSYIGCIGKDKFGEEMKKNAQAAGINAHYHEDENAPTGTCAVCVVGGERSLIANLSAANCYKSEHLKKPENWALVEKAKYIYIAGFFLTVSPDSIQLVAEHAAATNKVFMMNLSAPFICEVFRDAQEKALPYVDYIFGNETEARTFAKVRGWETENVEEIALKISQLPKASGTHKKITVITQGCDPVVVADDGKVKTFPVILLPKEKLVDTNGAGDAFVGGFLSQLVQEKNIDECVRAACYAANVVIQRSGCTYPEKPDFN
Procedure: Substrate analogs were purchased from Sigma-Aldrich (www.sigmaaldrich.com). […] In this assay, PK converts ADP produced by ADK and phosphoenolpyruvate (PEP) to pyruvate. Subsequently, LDH then converts pyruvate to lactate using the coenzyme NADH, with the conversion monitored at 340 nm. The reaction was conducted in 50 mM Tris–HCl buffer at pH 7.5, containing 50 mM KCl, 6 mM MgCl2, 300 µM PEP, 200 µM NADH, 10 mM ATP, 2 U of PK, and 2.5 U of LDH, using various nucleoside substrates. Kinetic constants were determined using GraphPad Prism 8.0 software (www.graphpad.com). Each measurement was performed six times using repetitive purified enzymes. […] The reaction mixture comprised 50 mM Tris–HCl pH 7.5, 5 mM MgCl2, 0.5 mM DTT, 30 mM NaF, 5 mM ATP, 40 µM substrate, and 2–150 ng of purified ADK, depending on the isoform. The reaction was incubated at 30 °C for up to 1 h.

[4] = target: T1, PpADK1 (Physcomitrium patens, UniProt O49923); experiment: ADK activity, coupled reaction with PK and LDH; type: biochemical, Physcomitrella patens; conditions: 100 µM substrate, 10 mM ATP, pH 7.5, 30 °C
T1 construct: made in house; host or cells: E. coli T7 Express Iq
T1 sequence (O49923 whole entry): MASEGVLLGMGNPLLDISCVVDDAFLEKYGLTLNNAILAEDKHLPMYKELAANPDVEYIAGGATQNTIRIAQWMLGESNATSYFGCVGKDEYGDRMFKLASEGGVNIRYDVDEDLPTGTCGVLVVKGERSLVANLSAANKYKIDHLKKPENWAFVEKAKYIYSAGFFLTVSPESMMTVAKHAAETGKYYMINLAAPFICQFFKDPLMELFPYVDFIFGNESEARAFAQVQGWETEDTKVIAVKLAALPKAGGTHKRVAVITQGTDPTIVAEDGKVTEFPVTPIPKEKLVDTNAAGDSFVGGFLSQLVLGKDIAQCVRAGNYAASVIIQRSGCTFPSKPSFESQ
Procedure: as §1

[5] = target: ZmADK3 D19A variant (Zea mays, UniProt A0A1D6E5Z5, D19A); experiment: ADK activity, coupled reaction with PK and LDH; type: biochemical
Sequence of ZmADK3 D19A variant (A0A1D6E5Z5 entry or part of it D19A): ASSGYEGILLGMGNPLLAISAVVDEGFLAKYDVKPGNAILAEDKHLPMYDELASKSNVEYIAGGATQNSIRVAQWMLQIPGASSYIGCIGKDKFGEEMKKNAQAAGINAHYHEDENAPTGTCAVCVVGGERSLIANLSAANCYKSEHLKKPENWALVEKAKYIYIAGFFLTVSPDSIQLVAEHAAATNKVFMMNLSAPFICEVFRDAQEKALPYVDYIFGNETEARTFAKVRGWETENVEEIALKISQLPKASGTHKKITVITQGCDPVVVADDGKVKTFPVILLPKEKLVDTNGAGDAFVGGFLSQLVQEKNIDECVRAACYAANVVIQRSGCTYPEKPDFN
Procedure: (§2) All ZmADK3 mutants were cloned by 30 cycle PCRs using tail-to-tail oriented phosphorylated primers, with the mutation being located at the 5′ end of one of the primers. The following mutants were cloned using the primers given in Supplementary Table S1: D19A, R132A, N222A, E225A, N295A, and D299A. The products were treated with DpnI restriction enzyme, gel purified, and ligated using T4 DNA ligase (www.thermofisher.com). Clones were transformed into T7 express I^qE. coli competent cells.
as §1

[6] = target: ZmADK3 D299A variant (Zea mays, UniProt A0A1D6E5Z5, D299A); experiment: ADK activity, coupled reaction with PK and LDH; type: biochemical; conditions: 100 µM Ado, 10 mM ATP, 30 °C
Sequence of ZmADK3 D299A variant (A0A1D6E5Z5 entry or part of it D299A): as the sequence (A0A1D6E5Z5 entry or part of it D19A) above, with A18D, D298A counted along it
Procedure: as §2, §1

[7] = target: ZmADK3 R132A variant (Zea mays, UniProt A0A1D6E5Z5, R132A); experiment: ADK activity, coupled reaction with PK and LDH; type: biochemical; conditions: 100 µM Ado, 10 mM ATP, 30 °C
Sequence of ZmADK3 R132A variant (A0A1D6E5Z5 entry or part of it R132A): as the sequence (A0A1D6E5Z5 entry or part of it D19A) above, with A18D, R131A counted along it
Procedure: as §2, §1

[8] = tested on: both moss enzymes; experiment: ADK activity, coupled reaction (summary for moss enzymes); type: biochemical, Physcomitrella patens; conditions: saturating 100 µM concentration
Procedure: Substrate analogs were purchased from Sigma-Aldrich (www.sigmaaldrich.com). The ADK activity was measured spectrophotometrically on an Agilent 8453 UV-Vis spectrophotometer (www.agilent.com) at 30 °C using a coupled reaction with pyruvate kinase (PK) and lactate dehydrogenase (LDH) (www.sigmaaldrich.com) ([Blondin et al., 1994]). In this assay, PK converts ADP produced by ADK and phosphoenolpyruvate (PEP) to pyruvate. Subsequently, LDH then converts pyruvate to lactate using the coenzyme NADH, with the conversion monitored at 340 nm. The reaction was conducted in 50 mM Tris–HCl buffer at pH 7.5, containing 50 mM KCl, 6 mM MgCl2, 300 µM PEP, 200 µM NADH, 10 mM ATP, 2 U of PK, and 2.5 U of LDH, using various nucleoside substrates. Kinetic constants were determined using GraphPad Prism 8.0 software (www.graphpad.com). Each measurement was performed six times using repetitive purified enzymes. The activities of all five ADKs were also measured by HPLC ([Moffatt et al., 1991]). The reaction mixture comprised 50 mM Tris–HCl pH 7.5, 5 mM MgCl2, 0.5 mM DTT, 30 mM NaF, 5 mM ATP, 40 µM substrate, and 2–150 ng of purified ADK, depending on the isoform. The reaction was incubated at 30 °C for up to 1 h. […]

Sequence of PpADK2 (A9RF27 entry or part of it): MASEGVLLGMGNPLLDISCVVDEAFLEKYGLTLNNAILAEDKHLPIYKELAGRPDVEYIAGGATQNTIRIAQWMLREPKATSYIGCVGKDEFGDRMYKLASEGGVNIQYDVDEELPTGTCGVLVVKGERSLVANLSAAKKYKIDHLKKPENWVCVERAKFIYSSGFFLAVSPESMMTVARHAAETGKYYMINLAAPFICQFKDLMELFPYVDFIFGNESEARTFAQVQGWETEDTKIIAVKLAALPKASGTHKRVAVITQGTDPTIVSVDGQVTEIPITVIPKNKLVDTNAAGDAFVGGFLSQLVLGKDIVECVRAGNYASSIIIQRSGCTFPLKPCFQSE

Structure (SMILES): Nc1ncnc2c1ncn2[C@@H]1O[C@H](CO)[C@@H](O)[C@H]1O [Ado, adenosine]
- Specific activity [1]: 4.70±0.05 nmol s^–1 mg^–1
- Specific activity [2]: 30.5±0.4 nmol s^–1 mg^–1
- Specific activity ([3]; WT ZmADK3, 100 µM Ado, 10 mM ATP, 30 °C): 31.0±0.8 nkat mg^–1
- Relative rate ([3]; WT ZmADK3, 100 µM Ado, relative to WT): 100.0%
- Specific activity ([3]; ZmADK3, 100 µM substrate, 10 mM ATP, pH 7.5, 30 °C): 30.0±1.1 nmol s^–1 mg^–1
- kcat ([3]; ZmADK3, 10 mM ATP, pH 7.5, 30 °C): 1.18±0.03 s^–1
- Specific activity [4]: 5.09±0.26 nmol s^–1 mg^–1
- reduction in specific activity ([5]; D19A variant of ZmADK3 vs WT, Ado substrate): 10 fold
- Specific activity ([5]; D19A, 100 µM Ado, 10 mM ATP, 30 °C): 3.3±0.4 nkat mg^–1
- Specific activity [6]: 1.8±0.1 nkat mg^–1
- Specific activity [7]: 7.4±0.3 nkat mg^–1
- activity [8]: 4–5 nkat mg^–1
